Measured values: ChEMBL document CHEMBL4011587, “Design, synthesis and evaluation of novel ferulic acid-O-alkylamine derivatives as potential multifunctional agents for the treatment of Alzheimer's disease” (Eur J Med Chem, 2017)
The source made the active and inactive calls. The calls are words filed in the database; no cut-off is given here.

Key:
[1] = Inhibition of BuChE in rat serum using butyrylthiocholine chloride as substrate measured after 15 mins by Ellman's method; settings: 0.25 h
[2] = target: Amyloid-beta precursor protein (Homo sapiens) (UniProt P05067); assay: Inhibition of amyloid beta (1 to 42) (unknown origin) self-aggregation at 25 uM after 24 hrs by thioflavin-T fluorescence assay relative to control
Acetylcholinesterase [3] = target: T1, Acetylcholinesterase (Rattus norvegicus, UniProt P37136); assay: Inhibition of AChE in rat cortex homogenates using acetylthiocholine chloride as substrate measured after 15 mins by Ellman's method; type: ADME
T1 sequence (P37136 whole entry): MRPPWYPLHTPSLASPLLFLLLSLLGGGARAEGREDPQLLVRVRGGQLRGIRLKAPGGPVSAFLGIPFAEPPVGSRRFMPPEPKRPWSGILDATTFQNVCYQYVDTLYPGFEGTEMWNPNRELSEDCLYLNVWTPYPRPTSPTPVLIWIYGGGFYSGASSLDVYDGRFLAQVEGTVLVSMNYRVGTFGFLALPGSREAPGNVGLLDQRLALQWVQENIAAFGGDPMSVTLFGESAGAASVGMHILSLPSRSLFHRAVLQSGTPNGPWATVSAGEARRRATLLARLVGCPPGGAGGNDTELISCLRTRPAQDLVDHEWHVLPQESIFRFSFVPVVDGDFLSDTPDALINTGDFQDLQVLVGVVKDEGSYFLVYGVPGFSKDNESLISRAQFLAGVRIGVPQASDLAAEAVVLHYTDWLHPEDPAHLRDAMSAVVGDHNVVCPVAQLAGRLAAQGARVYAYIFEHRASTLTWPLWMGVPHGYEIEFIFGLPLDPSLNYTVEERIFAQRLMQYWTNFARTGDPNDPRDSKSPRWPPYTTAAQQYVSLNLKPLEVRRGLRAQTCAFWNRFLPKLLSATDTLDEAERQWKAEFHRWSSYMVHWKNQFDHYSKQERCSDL

Acetylcholinesterase [4] = target: Acetylcholinesterase (Electrophorus electricus, UniProt O42275); assay: Inhibition of electric eel AChE using acetylthiocholine chloride as substrate measured after 15 mins by Ellman's method; type: ADME
[5] = Antioxidant activity assessed as inhibition of AAPH-induced peroxyl radical generation measured as trolox equivalent at 1 to 10 uM preincubated for 15 mins followed by AAPH addition measured every minute for 90 mins by ORAC-FL assay; type: functional
[6] = Selectivity index, ratio of IC50 for electric eel AChE to IC50 for equine serum BuChE
Cholinesterase [7] = target: Cholinesterase (Equus caballus, UniProt P81908); assay: Inhibition of equine serum BuChE using butyrylthiocholine chloride as substrate measured after 15 mins by Ellman's method
[8] = target: Amyloid-beta precursor protein (Homo sapiens) (UniProt P05067); assay: Inhibition of amyloid beta (1 to 42) (unknown origin) self-aggregation at 50 uM after 24 hrs by thioflavin-T fluorescence assay relative to control
Mus musculus [9] = assay: Acute toxicity in Kunming mouse assessed as effect on food consumption up to 1000 mg/kg, po measured after 4 hrs up to 14 days; type: organism-based; settings: in vivo
Mus musculus [10] = assay: Acute toxicity in Kunming mouse assessed as kidney damage up to 1000 mg/kg, po measured after 14 days by macroscopic method; type: organism-based; settings: in vivo, 336 h
Mus musculus [11] = assay: Reversal of scopolamine-induced memory deficit in Kunming mouse assessed as step down latency time at 21.3 mg/kg, po treated for 1 hr before training followed by scopolamine challenge 30 mins before training measured 24 hrs after training trial by passive avoidance test (reference value: 50.5 sec); type: functional
Mus musculus [12] = assay: Acute toxicity in Kunming mouse assessed as heart damage up to 1000 mg/kg, po measured after 14 days by macroscopic method; type: organism-based; settings: in vivo, 336 h
[13] = Cytotoxicity against rat PC12 cells assessed as cell viability at 100 uM after 48 hrs by MTT assay relative to control; type: cell-based, PC-12; settings: read-out: Activity
Mus musculus [14] = assay: Acute toxicity in Kunming mouse up to 1000 mg/kg, po measured after 4 hrs up to 14 days; type: organism-based; settings: in vivo
PC-12 [15] = assay: Protection against H2O2-induced oxidative injury in rat PC12 cells assessed as increase in cell viability pretreated for 2 hrs followed by H2O2 challenge for 30 mins measured after 24 hrs by MTT assay; type: functional, cell-based
Mus musculus [16] = assay: Acute toxicity in Kunming mouse assessed as change in body weight up to 1000 mg/kg, po measured after 4 hrs up to 14 days; type: organism-based; settings: in vivo
Mus musculus [17] = assay: Reversal of scopolamine-induced memory deficit in Kunming mouse assessed as increase in step down latency time administered orally treated for 1 hr before training followed by scopolamine challenge 30 mins before training measured 24 hrs after training trial by passive avoidance test; type: functional
Mus musculus [18] = assay: Acute toxicity in Kunming mouse assessed as liver damage up to 1000 mg/kg, po measured after 14 days by macroscopic method; type: organism-based; settings: in vivo, 336 h
PC-12 [19] = assay: Protection against H2O2-induced oxidative injury in rat PC12 cells assessed as cell viability at 10 uM pretreated for 2 hrs followed by H2O2 challenge for 30 mins measured after 24 hrs by MTT assay (reference value: 50.7%); type: functional; settings: read-out: Activity
PC-12 [20] = assay: Protection against H2O2-induced oxidative injury in rat PC12 cells assessed as cell viability at 1 uM pretreated for 2 hrs followed by H2O2 challenge for 30 mins measured after 24 hrs by MTT assay (reference value: 50.7%); type: functional; settings: read-out: Activity
Mus musculus [21] = assay: Acute toxicity in Kunming mouse assessed as effect on water consumption up to 1000 mg/kg, po measured after 4 hrs up to 14 days; type: organism-based; settings: in vivo
[22] = Selectivity ratio of IC50 for AChE in human erythrocytes to IC50 for electric eel AChE; type: ADME, cell-based
PC-12 [23] = assay: Cytotoxicity against rat PC12 cells assessed as cell viability up to 10 uM after 48 hrs by MTT assay; type: cell-based; settings: pc-12, 48 h
Acetylcholinesterase [24] = target: Acetylcholinesterase (Homo sapiens, UniProt P22303); assay: Inhibition of AChE in human erythrocytes using acetylthiocholine chloride as substrate measured after 15 mins by Ellman's method; type: cell-based
Cholinesterase [25] = target: Cholinesterase (Homo sapiens, UniProt P06276); assay: Inhibition of BuChE in human serum using butyrylthiocholine chloride as substrate measured after 15 mins by Ellman's method
[26] = target: Amyloid-beta precursor protein (Homo sapiens) (UniProt P05067); assay: Inhibition of amyloid beta (1 to 42) (unknown origin) self-aggregation after 24 hrs by thioflavin-T fluorescence assay
[27] = target: Amyloid-beta precursor protein (Homo sapiens) (UniProt P05067); assay: Inhibition of amyloid beta (1 to 42) (unknown origin) fibril formation at 25 uM after 24 hrs by transmission electron microscopic method
[28] = Selectivity index, ratio of IC50 for AChE in human erythrocytes to IC50 for BuChE in human serum
[29] = Permeability of the compound in PBS/EtOH at 100 ug/ml after 18 hrs by PAMPA-BBB assay
Mus musculus [30] = assay: Acute toxicity in Kunming mouse assessed as effect on fur sleekness up to 1000 mg/kg, po measured after 4 hrs up to 14 days; type: organism-based; settings: in vivo
[31] = target: Amyloid-beta precursor protein (Homo sapiens) (UniProt P05067); assay: Disaggregation of amyloid beta (1 to 42) (unknown origin) self aggregation at 25 uM after 24 hrs by transmission electron microscopic method
[32] = target: Amyloid-beta precursor protein (Homo sapiens) (UniProt P05067); assay: Disaggregation of amyloid beta (1 to 42) (unknown origin) self aggregation at 25 uM after 24 hrs by thioflavin-T assay relative to control
[33] = target: Amyloid-beta precursor protein (Homo sapiens) (UniProt P05067); assay: Inhibition of amyloid beta (1 to 42) (unknown origin) self-aggregation at 12.5 uM after 24 hrs by thioflavin-T fluorescence assay relative to control
Acetylcholinesterase [34] = target: T1, Acetylcholinesterase; assay: Inhibition of AChE in rat cortex homogenates at 25 umol/l using acetylthiocholine chloride as substrate measured after 15 mins by Ellman's method; settings: 0.25 h

Sequence of Acetylcholinesterase (Electrophorus electricus, UniProt O42275) (O42275 whole entry): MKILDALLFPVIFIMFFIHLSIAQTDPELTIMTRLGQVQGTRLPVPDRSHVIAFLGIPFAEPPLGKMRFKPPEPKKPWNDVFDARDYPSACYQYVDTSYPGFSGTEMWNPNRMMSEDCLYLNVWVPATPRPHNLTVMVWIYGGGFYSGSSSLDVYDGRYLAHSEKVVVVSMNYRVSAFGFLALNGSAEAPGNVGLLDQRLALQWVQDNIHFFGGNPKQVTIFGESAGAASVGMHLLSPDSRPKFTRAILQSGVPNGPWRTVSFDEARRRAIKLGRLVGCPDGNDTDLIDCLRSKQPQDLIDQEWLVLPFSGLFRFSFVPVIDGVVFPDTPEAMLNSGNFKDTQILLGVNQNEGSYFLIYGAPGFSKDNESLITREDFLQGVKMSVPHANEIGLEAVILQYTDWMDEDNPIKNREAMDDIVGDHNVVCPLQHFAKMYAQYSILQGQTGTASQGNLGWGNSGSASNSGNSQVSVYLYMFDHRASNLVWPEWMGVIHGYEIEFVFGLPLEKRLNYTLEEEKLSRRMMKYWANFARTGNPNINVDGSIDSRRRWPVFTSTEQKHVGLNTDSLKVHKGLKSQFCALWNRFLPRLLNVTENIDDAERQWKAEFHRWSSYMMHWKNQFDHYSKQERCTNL
Sequence of Cholinesterase (Equus caballus, UniProt P81908) (P81908 whole entry): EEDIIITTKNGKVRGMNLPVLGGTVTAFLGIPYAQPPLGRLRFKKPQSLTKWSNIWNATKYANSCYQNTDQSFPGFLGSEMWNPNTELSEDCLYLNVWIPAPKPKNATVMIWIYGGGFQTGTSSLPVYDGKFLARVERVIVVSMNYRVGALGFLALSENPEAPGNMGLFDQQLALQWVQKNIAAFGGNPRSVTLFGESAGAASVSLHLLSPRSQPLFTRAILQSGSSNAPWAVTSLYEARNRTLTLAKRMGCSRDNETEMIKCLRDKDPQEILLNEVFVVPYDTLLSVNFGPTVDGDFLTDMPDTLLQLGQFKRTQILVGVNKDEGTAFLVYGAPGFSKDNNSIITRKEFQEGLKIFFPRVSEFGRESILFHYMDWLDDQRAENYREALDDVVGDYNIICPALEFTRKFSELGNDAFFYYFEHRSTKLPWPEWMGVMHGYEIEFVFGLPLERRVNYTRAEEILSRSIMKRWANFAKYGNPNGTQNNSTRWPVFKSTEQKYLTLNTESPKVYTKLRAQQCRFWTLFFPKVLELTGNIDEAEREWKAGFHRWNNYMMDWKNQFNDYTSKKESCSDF
Sequence of Amyloid-beta precursor protein (Homo sapiens) (P05067 whole entry): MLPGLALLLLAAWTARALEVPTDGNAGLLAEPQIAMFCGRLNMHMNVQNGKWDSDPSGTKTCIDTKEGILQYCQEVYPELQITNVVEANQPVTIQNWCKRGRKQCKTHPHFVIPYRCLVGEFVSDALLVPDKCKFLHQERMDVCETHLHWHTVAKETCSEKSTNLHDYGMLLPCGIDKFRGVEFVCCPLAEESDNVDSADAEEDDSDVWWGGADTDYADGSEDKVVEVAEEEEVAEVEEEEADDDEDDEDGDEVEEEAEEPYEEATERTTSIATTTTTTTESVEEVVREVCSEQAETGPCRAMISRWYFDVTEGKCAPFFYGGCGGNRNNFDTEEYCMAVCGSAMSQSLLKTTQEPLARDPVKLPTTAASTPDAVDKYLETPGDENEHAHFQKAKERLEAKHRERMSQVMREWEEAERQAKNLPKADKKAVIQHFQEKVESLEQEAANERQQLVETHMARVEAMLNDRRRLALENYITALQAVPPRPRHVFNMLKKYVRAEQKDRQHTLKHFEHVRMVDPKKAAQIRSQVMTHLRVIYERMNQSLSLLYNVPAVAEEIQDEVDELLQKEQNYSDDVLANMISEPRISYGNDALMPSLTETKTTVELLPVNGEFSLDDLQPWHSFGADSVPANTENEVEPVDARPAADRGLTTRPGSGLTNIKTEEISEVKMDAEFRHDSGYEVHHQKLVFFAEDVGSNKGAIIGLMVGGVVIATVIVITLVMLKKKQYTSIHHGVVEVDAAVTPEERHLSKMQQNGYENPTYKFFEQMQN
Sequence of Acetylcholinesterase (Homo sapiens, UniProt P22303) (P22303 whole entry): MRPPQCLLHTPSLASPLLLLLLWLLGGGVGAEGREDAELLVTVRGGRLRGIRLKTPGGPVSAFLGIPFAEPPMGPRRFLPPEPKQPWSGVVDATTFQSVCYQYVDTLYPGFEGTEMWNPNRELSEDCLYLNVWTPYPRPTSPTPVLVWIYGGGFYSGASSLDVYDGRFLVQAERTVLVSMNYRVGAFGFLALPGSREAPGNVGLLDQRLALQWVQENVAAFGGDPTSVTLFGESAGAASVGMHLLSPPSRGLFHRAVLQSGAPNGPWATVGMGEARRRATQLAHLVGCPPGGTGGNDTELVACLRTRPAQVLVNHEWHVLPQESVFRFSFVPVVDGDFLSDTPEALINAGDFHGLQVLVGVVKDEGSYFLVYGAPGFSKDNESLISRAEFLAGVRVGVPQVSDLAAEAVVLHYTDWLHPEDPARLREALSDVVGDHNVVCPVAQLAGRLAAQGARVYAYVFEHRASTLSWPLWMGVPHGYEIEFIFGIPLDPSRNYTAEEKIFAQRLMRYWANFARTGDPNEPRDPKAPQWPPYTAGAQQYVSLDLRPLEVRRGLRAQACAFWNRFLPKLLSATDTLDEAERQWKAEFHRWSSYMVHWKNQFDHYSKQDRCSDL
Sequence of Cholinesterase (Homo sapiens, UniProt P06276) (P06276 whole entry): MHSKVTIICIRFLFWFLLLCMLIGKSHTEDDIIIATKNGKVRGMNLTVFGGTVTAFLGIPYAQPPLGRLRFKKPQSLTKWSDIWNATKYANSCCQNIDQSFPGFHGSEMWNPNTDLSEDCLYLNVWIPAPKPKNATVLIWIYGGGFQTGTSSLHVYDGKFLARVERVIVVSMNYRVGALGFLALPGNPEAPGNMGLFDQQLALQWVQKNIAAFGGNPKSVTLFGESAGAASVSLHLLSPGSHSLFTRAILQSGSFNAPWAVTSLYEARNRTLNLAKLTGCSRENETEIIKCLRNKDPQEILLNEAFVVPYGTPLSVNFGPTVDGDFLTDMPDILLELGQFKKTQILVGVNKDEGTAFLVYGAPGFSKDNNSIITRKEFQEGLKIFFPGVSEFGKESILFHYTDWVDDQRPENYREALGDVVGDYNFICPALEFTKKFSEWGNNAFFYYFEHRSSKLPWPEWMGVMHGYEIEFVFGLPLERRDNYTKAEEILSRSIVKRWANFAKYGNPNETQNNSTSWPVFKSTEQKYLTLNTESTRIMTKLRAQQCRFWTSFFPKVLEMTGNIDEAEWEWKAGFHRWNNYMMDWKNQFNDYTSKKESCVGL

## COc1cc(/C=C/C(=O)N2CCC(Cc3ccccc3)CC2)ccc1OCCCCCN1CCN(c2ncccn2)CC1
[1]
  IC50: 45.3 µM
[2]
  inhibition: 39.7%
Acetylcholinesterase [3]
  IC50: 30.6 µM
Acetylcholinesterase [4]
  IC50: 5.81 µM
[5]
  Activity: 0.46 equiv
[6]
  Ratio IC50: 2.5
Cholinesterase [7]
  IC50: 2.34 µM

## COc1cc(/C=C/C(=O)N2CCC(Cc3ccccc3)CC2)ccc1OCCCCN1CCN(c2ccccn2)CC1
[1]
  IC50: 48.6 µM
[2]
  inhibition: 49.8%
Acetylcholinesterase [3]
  IC50: 67.2 µM
Acetylcholinesterase [4]
  IC50: 11.2 µM
[5]
  Activity: 0.4 equiv
[6]
  Ratio IC50: 6.9
Cholinesterase [7]
  IC50: 1.62 µM

## COc1cc(/C=C/C(=O)N2CCC(Cc3ccccc3)CC2)ccc1OCCCCCN1CCN(c2ccccn2)CC1
[1]
  IC50: 57.3 µM
[2]
  inhibition: 51.5%
Acetylcholinesterase [3]
  IC50: 58.5 µM
Acetylcholinesterase [4]
  IC50: 9.12 µM
[5]
  Activity: 0.45 equiv
[6]
  Ratio IC50: 6
Cholinesterase [7]
  IC50: 1.52 µM

## COc1cc(/C=C/C(=O)N2CCC(Cc3ccccc3)CC2)ccc1OCCCCN1CCc2ccccc2C1
[8]
  inhibition: 68.7%
Mus musculus [9]
  Activity: Non-Toxic
Mus musculus [10]
  Activity: Non-Toxic
Mus musculus [11]
  Time: 182.8 s
Mus musculus [12]
  Activity: Non-Toxic
[13]
  viability at 48 h, 100 µM: 85.8%
[1]
  IC50: 8.63 µM
Mus musculus [14]
  Activity: Non-Toxic
PC-12 [15]
  Activity: Dose-dependent effect
[2]
  inhibition: 50.8%
Mus musculus [16]
  Activity: Non-Toxic
Mus musculus [17]
  Activity: Dose-dependent effect
Mus musculus [18]
  Activity: Non-Toxic
PC-12 [19]
  viability at 10 µM: 76.7%
PC-12 [20]
  viability at 1 µM: 58.6%
Mus musculus [21]
  Activity: Non-Toxic
[22]
  Ratio IC50: 2 to 4
PC-12 [23]
  Activity: Non-Toxic
Acetylcholinesterase [24]
  IC50: 3.82 µM
Cholinesterase [25]
  IC50: 0.07 µM
Acetylcholinesterase [3]
  IC50: 1.8 µM
[26]
  inhibition: Dose-dependent effect
Acetylcholinesterase [4]
  IC50: 2.13 µM
[27]
  inhibition: Active
[28]
  Ratio IC50: 54.6
[29]
  Papp at 18 h, 100 ug/ml: 184 nm/s
Mus musculus [30]
  Activity: Non-Toxic
[5]
  Activity: 0.55 equiv
[31]
  Activity: Active
[6]
  Ratio IC50: 101
Cholinesterase [7]
  IC50: 0.021 µM
[32]
  Activity: 38.7%
[33]
  inhibition: 31.2%

## COc1cc(/C=C/C(=O)N2CCC(Cc3ccccc3)CC2)ccc1OCCCCCCN1CCN(Cc2ccccc2)CC1
[1]
  IC50: 50.6 µM
[2]
  inhibition: 51.1%
Acetylcholinesterase [3]
  IC50: 73.2 µM
Acetylcholinesterase [4]
  IC50: 4.83 µM
[5]
  Activity: 0.73 equiv
[6]
  Ratio IC50: 2.2
Cholinesterase [7]
  IC50: 2.2 µM

## COc1cc(/C=C/C(=O)N2CCC(Cc3ccccc3)CC2)ccc1OCCCCCCN1CCc2ccccc2C1
[1]
  IC50: 3.47 µM
[2]
  inhibition: 54.7%
Acetylcholinesterase [3]
  IC50: 21.5 µM
Acetylcholinesterase [4]
  IC50: 9.32 µM
[5]
  Activity: 0.49 equiv
[6]
  Ratio IC50: 10.6
Cholinesterase [7]
  IC50: 0.88 µM

## COc1cc(/C=C/C(=O)N2CCC(Cc3ccccc3)CC2)ccc1OCCCCCCN1CCN(c2ccccn2)CC1
[1]
  IC50: 6.9 µM
[2]
  inhibition: 49.9%
Acetylcholinesterase [4]
  IC50: 15.6 µM
[5]
  Activity: 0.38 equiv
[6]
  Ratio IC50: 16.4
Cholinesterase [7]
  IC50: 0.95 µM
Acetylcholinesterase [34]
  inhibition at 25 µM: 18.5%

## COc1cc(/C=C/C(=O)N2CCC(Cc3ccccc3)CC2)ccc1OCCCCCN1CCc2ccccc2C1
[1]
  IC50: 11.4 µM
[2]
  inhibition: 50.7%
Acetylcholinesterase [3]
  IC50: 3.21 µM
Acetylcholinesterase [4]
  IC50: 4.33 µM
[5]
  Activity: 0.47 equiv
[6]
  Ratio IC50: 14
Cholinesterase [7]
  IC50: 0.31 µM

## COc1cc(/C=C/C(=O)N2CCC(Cc3ccccc3)CC2)ccc1OCCCCN1CCN(c2ncccn2)CC1
[1]
  IC50: 56.2 µM
[2]
  inhibition: 46%
Acetylcholinesterase [3]
  IC50: 44.3 µM
Acetylcholinesterase [4]
  IC50: 12.4 µM
[5]
  Activity: 0.43 equiv
[6]
  Ratio IC50: 7.9
Cholinesterase [7]
  IC50: 1.56 µM
